Where two headings read alike, the source gives them in different places.
Legend:
[1] = for AUCleast: mouse, in vivo, pH 2.3
in vivo = conditions: mouse, plasma, pH 2.3
[2] = system: VEGF dependent retinal vascular development; experiment: In vivo assay of retinal vascular development in neonatal rats; parameters: species or system rat
Experimental: The development of the retinal vascular in rats occurs from postnatal day 1 to postnatal day 14 (P1-P14). […] To assess the ability of specific compounds to inhibit the activity of VEGF in vivo, compounds were formulated in an appropriate vehicle, usually 50% polyethylene glycol, average molecular weight 400 daltons, and 50% solution of 300 mM sucrose in deionized water. […] Six days after the intravitreal injection, the animals were sacrificed and the retinas dissected free from the remaining ocular tissue. […] The individual retinas are then flat-mount onto glass slides and examined to determine the extent of vascularization. […] The amount of vessel regression was used to assess the relative potency of the compounds after in vivo administration.
For more quantitative analysis of regression, images of ADPase-stained, flat-mounted retinas were captured with a digital camera attached to a dissecting microscope. Retinal images were then imported into an image analysis software (Image Pro Plus 4.0, Media Cybernetics, Silver Spring, MD). The software was employed to determine the percentage of the area of the retina that contained stained vessels. This value for the experimental eye was compared to that measured for the vehicle injected, contralateral eye from the same animal. The reduction in the vascular area seen in the eye that received compound as compared to the vehicle-injected eye was then expressed as the "percent regression" for that sample.

LCK tyrosine kinase = LCK tyrosine kinase (Homo sapiens, UniProt P06239, C224D/P223M); experiment: LCK spectrophotometric assay; format: biochemical; conditions: Table 1; compound concentration 1 µM; read-out: Lck-P* (% inhibition)
LCK tyrosine kinase, sequence (P06239 223-509 P223M/C224D): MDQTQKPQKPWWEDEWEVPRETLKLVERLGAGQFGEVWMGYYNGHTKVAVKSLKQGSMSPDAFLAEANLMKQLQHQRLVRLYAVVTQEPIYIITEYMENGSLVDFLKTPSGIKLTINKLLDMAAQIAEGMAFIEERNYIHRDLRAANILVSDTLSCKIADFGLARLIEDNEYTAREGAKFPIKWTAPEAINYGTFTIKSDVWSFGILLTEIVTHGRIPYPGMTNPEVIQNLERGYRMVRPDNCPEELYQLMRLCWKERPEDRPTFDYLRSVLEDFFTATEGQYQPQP
Experimental: The spectrophotometric assay was carried out as described above for VEGF-R2, except for the following changes in concentration: LCK = 60 nM, MgCl2 = 0 mM, poly(E4Y1) = 20 mM.

in vitro = in vitro ADME, human; conditions: 2 h
Method in brief: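 HLM diluted to 5 mg/mL in 100 mM KPO4, preincubated 10 min at 37 °C with NADPH-regenerating system. Compound (5 µM final) incubated at 37 °C in triplicate, sampled at 0 and 2 h into ice-cold acetonitrile, then LC-MS analysis.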

[3] = system: human umbilical vein endothelial cells (HUVEC); experiment: HUVEC proliferation assay (VEGF-stimulated, MTT); format: cell-based; conditions: Homo sapiens, HUVEC, Table 1
human FGF-R1 = human FGF-R1 (Homo sapiens, UniProt P11362, C488A/C584S/L457V); experiment: FGF-R spectrophotometric assay; format: biochemical; conditions: Table 1; compound concentration 1 µM; read-out: FGF-P* (% inhibition)
human FGF-R1, sequence (P11362 456-766 L457V/C488A/C584S): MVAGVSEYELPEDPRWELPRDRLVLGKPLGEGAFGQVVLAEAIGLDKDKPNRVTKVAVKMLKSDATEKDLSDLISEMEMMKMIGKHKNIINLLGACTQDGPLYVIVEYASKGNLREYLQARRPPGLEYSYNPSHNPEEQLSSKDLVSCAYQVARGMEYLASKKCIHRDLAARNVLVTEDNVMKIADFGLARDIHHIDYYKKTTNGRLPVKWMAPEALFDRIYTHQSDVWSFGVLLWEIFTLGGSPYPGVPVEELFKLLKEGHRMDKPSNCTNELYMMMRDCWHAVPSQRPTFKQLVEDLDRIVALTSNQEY
Experimental: The spectrophotometric assay was carried out as described above for VEGF-R2, except for the following changes in concentration: FGF-R = 50 nM, ATP = 2 mM, and poly(E4Y1) =15 mM.

[4] = biological target: unphosphorylated VEGF-R2Δ50 (Homo sapiens, UniProt P35968, DEL940-989/E990V); experiment: biochemical; conditions: read-out: FLVK ** (% inhibition)
unphosphorylated VEGF-R2Δ50, sequence (P35968 with tags, fused parts or gaps DEL940-989/E990V limits assumed): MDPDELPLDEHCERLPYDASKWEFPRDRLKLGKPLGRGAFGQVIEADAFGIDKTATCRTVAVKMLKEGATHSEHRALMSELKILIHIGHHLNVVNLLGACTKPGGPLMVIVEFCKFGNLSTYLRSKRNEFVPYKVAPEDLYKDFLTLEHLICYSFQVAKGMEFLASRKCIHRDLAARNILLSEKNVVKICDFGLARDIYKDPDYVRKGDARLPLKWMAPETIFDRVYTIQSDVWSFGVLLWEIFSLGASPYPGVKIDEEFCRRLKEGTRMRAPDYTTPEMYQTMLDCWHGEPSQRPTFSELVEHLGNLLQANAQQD

[5] = IP, 25 mg/kg, vehicle PEG400:H2O pH 2.3 30:70
[6] = PO, 50 mg/kg, vehicle PEG400:H2O pH 2.3 30:70
[7] = human liver microsomes, 5 µM test compound, 37 °C
[8] = + albumin, read-out: HUVEC + albumin IC50
[9] = Model P8, intravitreal, 5 mg/ml, vehicle PEG/water 50:50
[10] = PO, 50 mg/kg, vehicle PEG400:H2O pH 2.3 60:40

SMILES | inhibition at 1 µM (LCK tyrosine kinase) | % remain (HLM, 2 h) (in vitro; [7]) | IC50 [3, 8] | inhibition at 1 µM (human FGF-R1) | % Inhibition [2, 9] | further results
CC1CC1C(=O)Nc1cccc(C(=O)c2ccc3c(/C=C/c4ccccn4)n[nH]c3c2)c1 (stereo not shown) [41 (h)] | – | – | – | – | – | T1/2 [1, 5]: 1.2 h; Cmin (7 hr conc.) [1, 6]: 7 ng/mL; T1/2 [1, 6]: 0.7 h; AUC (in vivo; ip, 25 mg/kg): 26900 ng·h/mL; AUC (in vivo; po, 50 mg/kg): 4680 ng·h/mL; % Inhibition ([2]; Model P8, intravitreal, 5 mg/ml, vehicle PEG/water 70:30): 0%
O=C(NC1CCC1)c1ccccc1Sc1ccc2c(/C=C/c3ccccn3)n[nH]c2c1 [Reference Example 35(c), 6-[2-(Cyclobutylcarbamoyl)phenylsulfanyl]-3-E-[2-(pyridin-2-yl)ethenyl]-1H-indazole] | 11% | 17% | 6.3 nM | 42% | 0% | inhibition at 0.05 µM [4]: 76%
Cc1cc(C(=O)Nc2cccc(C(=O)c3ccc4c(/C=C/c5ccccn5)n[nH]c4c3)c2)on1 [Reference Example 41(m), 6-[3-((3-methylisoxazol-5-yl)carboxamido)benzoyl]-3-E-[2-(pyridin-2-yl)ethenyl]-1H-indazole] | 40% | 0% | 23 nM | 67% | 10% | –
CCCNC(=O)c1ccccc1Sc1ccc2c(/C=C/c3ccccn3)n[nH]c2c1 [Reference Example 35(a), 6-[2-(n-Propylcarbamoyl)phenylsulfanyl]-3-E-[2-(pyridin-2-yl)ethenyl]-1H-indazole] | 12% | 33% | 2.1 nM | 59% | 4% | inhibition at 0.05 µM [4]: 76%
O=C(NCC1CC1)c1ccccc1Sc1ccc2c(/C=C/c3ccccn3)n[nH]c2c1 [Reference Example 35(v), 6-[2-(Cyclopropylmethyl-carbamoyl)phenylsulfanyl]-3-E-[2-(pyridin-2-yl)ethenyl]-1H-indazole] | 11% | 26% | 22 nM | 59% | 20% | inhibition at 0.05 µM [4]: 72%
O=C(NCC(F)(F)F)c1ccccc1Sc1ccc2c(/C=C/c3ccccn3)n[nH]c2c1 [Reference Example 33(f), 6-[2-(2,2,2-trifluoroethylcarbamoyl)phenylsulfanyl]-3-E-[2-(pyridin-2-yl)ethenyl]-1H-indazole] | – | 31% | 17 nM | – | 20% | –
CCCn1nc(C)cc1C(=O)Nc1cccc(C(=O)c2ccc3c(/C=C/c4ccccn4)n[nH]c3c2)c1 [41 (r)] | – | – | – | – | – | AUCleast ([1]; ip, 25 mg/kg): > 23752 ng·h/mL; AUCleast ([1]; po, 50 mg/kg): > 17789 ng·h/mL; Initial Evaluation [2, 9]: +/++ var
Cc1nc(/C=C/c2n[nH]c3cc(C(=O)c4cccc(NC(=O)c5ccccc5)c4)ccc23)cs1 [Example 42(c)] | – | – | – | – | 36% | –
Cc1cc(C(=O)Nc2cc(Nc3ccc4c(/C=C/c5ccccn5)n[nH]c4c3)ccc2C)n(C)n1 [Example 49(b), 6-[N-(3-((1,3-Dimethyl-1H-pyrazol-5-yl)carboxamido)-4-methylphenyl)amino]-3-E-[2-(pyridin-2-yl)ethenyl]-1H-indazole] | 9% | – | – | 80% | 5% | inhibition at 0.05 µM [4]: 98%
CC(=O)c1ccc(C(=O)Nc2cccc(C(=O)c3ccc4c(/C=C/c5ccccn5)n[nH]c4c3)c2)s1 [41 (e)] | – | – | – | – | 8% | T1/2 ([1]; IP, 25 mg/kg, vehicle PEG400:H2O pH 2.3 60:40): 1.6 h; Cmin (7 hr conc.) [1, 10]: 7 ng/mL; T1/2 [1, 10]: 1.6 h; AUC (in vivo; ip, 25 mg/kg): 4900 ng·h/mL; AUC (in vivo; po, 50 mg/kg): 302 ng·h/mL
C=CCONC(=O)c1ccccc1Sc1ccc2c(/C=C/c3ccccn3)n[nH]c2c1 [Reference Example 35(j), 6-[2-(Allyloxycarbamoyl)phenylsulfanyl]-3-E-[2-(pyridin-2-yl)ethenyl]-1H-indazole] | – | – | – | – | 7% | –
O=C(Nc1cccc(Oc2ccc3c(/C=C/c4c[nH]cn4)n[nH]c3c2)c1)c1ccccc1 [Reference Example 32(a), 6-[3-benzamidophenoxy]-3-E-[2-(1H-imidazol-4-yl)ethenyl]-1H-indazole] | 86% | – | 4.5 nM | 96% | – | IC50 ([3]; read-out: HUVEC IC50): 0.16 nM; AUC (in vivo; ip, 25 mg/kg): > 20600 ng·h/mL; AUC (in vivo; po, 50 mg/kg): 4190 ng·h/mL; % Inhibition ([2]; Model P9, intravitreal, 5 mg/ml, vehicle PEG/water 50:50): 20%
O=C(c1cccc(NC(=O)c2ccc(Cl)s2)c1)c1ccc2c(/C=C/c3ccccn3)n[nH]c2c1 [41 (o)] | – | – | – | – | 2% | T1/2 [1, 6]: 1.7 h; AUC (in vivo; po, 50 mg/kg): 14700 ng·h/mL
Cc1cc(C(=O)Nc2cc(Nc3ccc4c(/C=C/c5ccccn5)n[nH]c4c3)ccc2F)n(C)n1 [Example 49(a), 6-[N-(3-((1,3-Dimethyl-1H-pyrazol-5-yl)carboxamido)-4-fluorophenyl)amino]-3-E-[2-(pyridin-2-yl)ethenyl]-1H-indazole] | – | – | – | – | 54% | –
Cn1nc(C(C)(C)C)cc1C(=O)Nc1cccc(C(=O)c2ccc3c(/C=C/c4ccccn4)n[nH]c3c2)c1 [Reference Example 41(n), 6-[3-((3-t-butyl-1-methyl-1H-pyrazol-5-yl)carboxamido)benzoyl]-3-E-[2-(pyridin-2-yl)ethenyl]-1H-indazole] | 66% | 70% | – | 87% | 2% | –
C#CCNC(=O)c1ccccc1Nc1ccc2c(/C=C/c3ccccn3)n[nH]c2c1 [Example 39(b), 6-[2-(Prop-2-ynylcarbamoyl)phenylamino]-3-E-[2-(pyridin-2-yl)ethenyl]-1H-indazole] | – | – | – | – | 9% | % remain (HLM, 2 h) (in vitro; human, microsomes, 5 µM): 67%
Cc1cc(C(=O)Nc2cc(C(=O)c3ccc4c(/C=C/c5ccccn5)n[nH]c4c3)c(C)cc2C)n(C)n1 [Reference Example 41(mm), 6-[2,4-dimethyl-5-((1,3-dimethyl-1H-Pyrazol-5-yl)carboxamido)benzoyl]-3-E-[2-(pyridin-2-yl)ethenyl]-1H-indazole] | – | – | – | – | – | Initial Evaluation [2, 9]: + (one plus being detectable regression judged to be approximately 25 percent or less)
Cc1cc(C(=O)Nc2cccc(C(=O)c3ccc4c(/C=C/c5ccccn5)n[nH]c4c3)c2)n[nH]1 [Reference Example 41(g), 6-[3-((5-methyl-1H-pyrazol-3-yl)carboxamido)benzoyl]-3-E-[2-(pyridin-2-yl)ethenyl]-1H-indazole] | 36% | 52% | > 10 nM | 95% | 37% | IC50 ([3]; read-out: HUVEC IC50): 0.9 nM
CCn1nc(C)cc1C(=O)Nc1cccc(C(=O)c2ccc3c(/C=C/c4ccccn4)n[nH]c3c2)c1 [41 (a)] | – | – | – | – | – | T1/2 [1, 5]: 2.9 h; T1/2 [1, 6]: 3.4 h; AUC (in vivo; ip, 25 mg/kg): 92800 ng·h/mL; AUC (in vivo; po, 50 mg/kg): 49000 ng·h/mL; % Inhibition ([2]; Model P8, intravitreal, 1 mg/ml, vehicle PEG/water 50:50): 4%
Cc1cc(C(=O)Nc2cccc(C(=O)c3ccc4c(/C=C/c5ccccn5)n[nH]c4c3)c2)n(C)n1 [41 (p)] | – | – | – | – | 35% | T1/2 [1, 5]: 5.5 h; AUC (in vivo; ip, 25 mg/kg): 4150 ng·h/mL
CS(=O)(=O)c1ccc(C(=O)Nc2cccc(Oc3ccc4c(/C=C/c5ccccn5)n[nH]c4c3)c2)s1 [Reference Example 31(c), 6-[3-((5-methylsulfonylthien-2-yl)carboxamido)phenoxy]-3-E-[2-(pyridin-2-yl)ethenyl]-1H-indazole] | 81% | 87% | 11.4 nM | 98% | – | Initial Evaluation [2, 9]: +/++ var
O=C(c1cccc(NC(=O)C2CC2)c1)c1ccc2c(/C=C/c3ccccn3)n[nH]c2c1 [Reference Example 41(k), 6-[3-(cyclopropylcarboxamido)benzoyl]-3-E-[2-(pyridin-2-yl)ethenyl]-1H-indazole] | 20% | – | 48 nM | 49% | 1% | –
